Measurements taken from ChEMBL document CHEMBL3886171, “Compounds and compositions for the inhibition of NAMPT” (2015).

Target: Nicotinamide phosphoribosyltransferase (Homo sapiens, UniProt P43490)
Assay: Biochemical Inhibition Assay: The NAMPT enzymatic reactions were carried out in Buffer A (50 mM Hepes pH 7.5, 50 mM NaCl, 5 mM MgCl2, and 1 mM THP) in 96-well V-bottom plates. The compound titrations were performed in a separate dilution plate by serially diluting the compounds in DMSO to make a 100x stock. Buffer A (89 uL) containing 33 nM of NAMPT protein was added to 1 uL of 100x compound …
Description: Biochemical Inhibition Assay: The NAMPT enzymatic reactions were carried out in Buffer A (50 mM Hepes pH 7.5, 50 mM NaCl, 5 mM MgCl2, and 1 mM THP) in 96-well V-bottom plates. The compound titrations were performed in a separate dilution plate by serially diluting the compounds in DMSO to make a 100x stock. […] The compound and enzyme mix was incubated for 15 minutes at room temperature, then 10 uL of 10x substrate and co-factors in Buffer A were added to the test well to make a final concentration of 1 uM NAM, 100 uM 5-Phospho-D-ribose 1-diphosphate (PRPP), and 2.5 mM Adenosine 5'-triphosphate (ATP). The reaction was allowed to proceed for 30 minutes at room temperature, then was quenched with the addition of 11 uL of a solution of formic acid and L-Cystathionine to make a final concentration of 1% formic acid and 10 uM L-Cystathionine.

Chain of Nicotinamide phosphoribosyltransferase (P43490 whole entry): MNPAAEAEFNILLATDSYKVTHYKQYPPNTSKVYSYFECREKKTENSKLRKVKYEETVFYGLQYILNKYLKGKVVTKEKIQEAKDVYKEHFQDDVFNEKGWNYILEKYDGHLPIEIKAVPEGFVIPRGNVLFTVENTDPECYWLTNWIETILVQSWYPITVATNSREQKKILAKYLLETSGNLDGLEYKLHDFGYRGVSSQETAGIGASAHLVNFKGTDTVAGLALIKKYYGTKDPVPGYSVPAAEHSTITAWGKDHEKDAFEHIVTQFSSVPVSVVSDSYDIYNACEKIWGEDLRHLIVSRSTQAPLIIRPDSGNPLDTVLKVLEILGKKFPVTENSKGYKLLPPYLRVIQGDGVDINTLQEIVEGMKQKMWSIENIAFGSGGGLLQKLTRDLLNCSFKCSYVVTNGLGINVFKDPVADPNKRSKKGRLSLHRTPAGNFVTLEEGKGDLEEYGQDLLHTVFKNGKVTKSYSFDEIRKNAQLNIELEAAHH

With `Cn1ncc2ccc(S(=O)(=O)c3ccc(NC(=O)/C=C/c4cccnc4)cc3)cc21` the IC50 was 2.6 nM.
